Test results as given in patent publication US20220380341A1, “INHIBITORS OF HIV-1 NEF FOR THE TREATMENT OF HIV DISEASE” (priority 2018, published 2022).
Like-named read-outs stand apart in the source and are kept apart here.

Tests used:
HIV-1NL4-3 = experiment: HIV-1 infectivity assay in TZM-bl reporter cell line (LTR-luciferase, 48 h); type: cell-based; conditions: for inhibition at 1 µM: Human immunodeficiency virus 1, TZM-bl
How it was run: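 Luciferase read-out 48 h post-infection; compound at 1 μM during HIV-1NL4-3 infection of TZM-bl cells. Percent inhibition scaled to DMSO wild-type virus (0%) and DMSO Nef-defective virus (100% of Nef-dependent effect). Viability checked separately in uninfected cells by Cell Titer Blue.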

TZM-bl cell line = type: cell-based; conditions: 1 μM
How it was run: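 Read-out is luciferase from an integrated HIV-1 LTR reporter in TZM-bl cells, 48 h after HIV-1NL4-3 infection in the presence of 1 μM compound. Scale set by DMSO-treated wild-type-infected cells (0%) and Nef-defective virus (100% Nef-dependent effect). Cell Titer Blue measures cytotoxicity without virus.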

HIV-1 NefNL4-3 = HIV-1 NefNL4-3 (Human immunodeficiency virus type 1 group M subtype B, UniProt P03406, A33V/T15A/T51N/V11I); experiment: Surface plasmon resonance binding to recombinant full-length Nef (NL4-3); conditions: for RU30/RUNef (extent of binding): response units at 30 μM relative to Nef immobilized on the SPR chip
[1] = 1.0 μM, TZM-bl reporter cell line, Table 4, read-out: % Infectivity Inhibition
[2] = 48 h, Table 1, TZM-bl cells, 1 μM, 48 h, 100% = Nef-defective HIV-1, read-out: HIV-1 Infectivity % Inhibition Norm. to Δ-Nef @ 1 μM
[3] = KD, M, Table 4, SPR fit 2-step induced fit, KD = koff/kon × koff2/(koff2 + kon2)
[4] = Nef NL4-3 Binding, SPR 2-state fitting KD, Table 1, 2-step induced-fit model
[5] = Table 4, 2-step induced fit, T = 1/koff2
[6] = read-out: Nef NL4-3 Binding, SPR 1:1 or 2-site fitting KD2, Table 1, 2-site fit, second component

| SMILES | inhibition at 1 µM (HIV-1NL4-3; [1]) | inhibition at 1 µM (HIV-1NL4-3; [2]) | % Cell Viability (TZM-bl cell line; human) | Percent Viability @ 1 μM (TZM-bl cells) (TZM-bl cell line; human) | Kd (HIV-1 NefNL4-3) | Kd (HIV-1 NefNL4-3; KD, M, Table 4, SPR fit 1:1 Langmuir, KD = koff/kon) | T, minutes (residence time) (HIV-1 NefNL4-3; Table 4, 1:1 Langmuir fit, T = 1/koff) | RU30/RUNef (extent of binding) (HIV-1 NefNL4-3) | Kd (HIV-1 NefNL4-3; [3]) | Kd (HIV-1 NefNL4-3; Nef NL4-3 Binding, SPR 1:1 or 2-site fitting KD2, Table 1, 2-site fit, second component) | Kd (HIV-1 NefNL4-3; [4]) | T, minutes (residence time) (HIV-1 NefNL4-3; [5]) | Kd (HIV-1 NefNL4-3; [6]) | HIV-1 Infectivity % Inhibition Norm. to Δ-Nef @ 1 μM (HIV-1NL4-3; Table 1, TZM-bl cells, 1 μM, 48 h, 100% = Nef-defective HIV-1) | Percent Viability @ 1 μM (TZM-bl cells) (TZM-bl cell line; Table 1, uninfected TZM-bl cells, Cell Titer Blue) | Kd (HIV-1 NefNL4-3; Table 1, 1:1 Langmuir fit where the KD2 cell says '1 to 1 fitting', else 2-site fit, read-out: Nef NL4-3 Binding, SPR 1:1 or 2-site fitting KD1) |
| --- | --- | --- | --- | --- | --- | --- | --- | --- | --- | --- | --- | --- | --- | --- | --- | --- |
| Cn1c(-n2nc(-c3cccc(S(C)(=O)=O)c3)c(CCc3ccc(F)cc3)c2O)nc2ccccc21 [Compound I-405, 4-[2-(4-fluorophenyl)ethyl]-3-(3-methanesulfonylphenyl)-1-(1-methyl-1H-1,3-benzodiazol-2-yl)-1H-pyrazol-5-ol] | 0% | -9.6% | 95.7% | 95.7% | 4390 nM | 4390 nM | 2.32E + 00 minutes | 3.25E- 03 | – | – | – | – | – | – | – | – |
| O=C(c1nn(-c2nc3ccccc3[nH]2)c(O)c1CCc1ccc(F)cc1)N1CCCCC1 [Compound I-406, 1-(1H-1,3-benzodiazol-2-yl)-4-[2-(4-fluorophenyl)ethyl]-3-(piperidine-1-carbonyl)-1H-pyrazol-5-ol] | 0% | -4.4% | 100% | 109.7% | 549 nM | – | – | 7.13E- 03 | 2670 nM | 1230 nM | 2670 nM | 2.85E + 00 minutes | – | – | – | – |
| Oc1c(CCc2ccc(F)cc2)c(C2CCNCC2)nn1-c1nc2ccc(Cl)cc2[nH]1 [Compound I-503, 1-(5-chloro-1H-1,3-benzodiazol-2-yl)-4-[2-(4-fluorophenyl)ethyl]-3-(piperidin-4-yl)-1H-pyrazol-5-ol] | 0% | -94.1% | 90.7% | 90.7% | 256 nM | – | – | 1.05E- 02 | 0.617 nM | – | 0.511 nM | 3.18E + 04 minutes | 3020 nM | – | – | – |
| Oc1c(CC2CCNCC2)c(-c2ccc(C(F)(F)F)cc2)nn1-c1nc2ccccc2[nH]1 [Compound I-504, 1-(1H-1,3-benzodiazol-2-yl)-4-[(piperidin-4-yl)methyl]-3-[4-(trifluoromethyl)phenyl]-1H-pyrazol-5-ol] | – | -43.7% | – | 101.3% | 10600 nM | – | – | – | – | – | – | – | – | – | – | – |
| CS(=O)(=O)c1ccc(-c2nn(-c3nc4cc(Cl)ccc4[nH]3)c(O)c2CCC2CCNCC2)cc1 [Compound I-550, 1-(5-chloro-1H-1,3-benzodiazol-2-yl)-3-(4-methanesulfonylphenyl)-4-[2-(piperidin-4-yl)ethyl]-1H-pyrazol-5-ol] | 0% | -12.9% | 98.8% | 98.8% | 282 nM | – | – | 1.75E- 02 | 8.54 nM | – | 8.54 nM | 3.33E + 03 minutes | 6200 nM | – | – | – |
| Oc1c(CCC2CCNCC2)c(-c2ccc(C(F)(F)F)cc2)nn1-c1nc2ccccc2[nH]1 [Compound I-552, 1-(1H-1,3-benzodiazol-2-yl)-4-[2-(piperidin-4-yl)ethyl]-3-[4-(trifluoromethyl)phenyl]-1H-pyrazol-5-ol] | 50.5% | 50.5% | 91.4% | 91.4% | 554 nM | – | – | 1.04E- 02 | 1040 nM | – | 749 nM | 2.17E + 01 minutes | 16500 nM | – | – | – |
| Oc1c(CCc2ccc(F)cc2)c(CC2CCNCC2)nn1-c1nc2ccccc2[nH]1 [Compound I-553, 1-(1H-1,3-benzodiazol-2-yl)-4-[2-(4-fluorophenyl)ethyl]-3-[(piperidin-4-yl)methyl]-1H-pyrazol-5-ol] | – | 74.3% | – | 62.3% | 1230 nM | – | – | – | – | – | – | – | – | – | – | – |
| Oc1c(CCC2CCNCC2)c(C2CC2)nn1-c1nc2cc(Cl)ccc2[nH]1 [Compound I-554, 1-(5-chloro-1H-1,3-benzodiazol-2-yl)-3-cyclopropyl-4-[2-(piperidin-4-yl)ethyl]-1H-pyrazol-5-ol] | 12.2% | 12.2% | 95.0% | 95.0% | 56.2 nM | – | – | 3.65E- 02 | 0.00315 nM | – | 0.00315 nM | 3.33E + 06 minutes | 2130 nM | – | – | – |
| Oc1c(CCC2CCNCC2)c(-c2ccc(C(F)(F)F)cn2)nn1-c1nc2cc(Br)ccc2[nH]1 [Compound I-555, 1-(5-bromo-1H-1,3-benzodiazol-2-y1)-4-[2-(piperidin-4-yl)ethyl]-3-[5-(trifluoromethyl)pyridin-2-yl]-1H-pyrazol-5-ol] | – | – | – | – | – | – | – | – | – | – | – | – | – | −118.0% | 104.6% | 875 nM |
